Experimental findings from patent publication US20140073637A1, “AMINO-SUBSTITUTED-ALKYLOXY-BENZO[E]PYRIDO[4,3-B]INDOLE DERIVATIVES AS NEW POTENT KINASE INHIBITORS” (INSTITUT CURIE, priority 2011, published 2014) are described below.

As a reminder, the remaining activity is the signal under treatment as a percentage of the control signal.

Data set [1] deals with T1, NUAK1 (Homo sapiens, UniProt O60285).
T1 construct: Reaction biology Corp (USA), service
T1 sequence (O60285 1-661): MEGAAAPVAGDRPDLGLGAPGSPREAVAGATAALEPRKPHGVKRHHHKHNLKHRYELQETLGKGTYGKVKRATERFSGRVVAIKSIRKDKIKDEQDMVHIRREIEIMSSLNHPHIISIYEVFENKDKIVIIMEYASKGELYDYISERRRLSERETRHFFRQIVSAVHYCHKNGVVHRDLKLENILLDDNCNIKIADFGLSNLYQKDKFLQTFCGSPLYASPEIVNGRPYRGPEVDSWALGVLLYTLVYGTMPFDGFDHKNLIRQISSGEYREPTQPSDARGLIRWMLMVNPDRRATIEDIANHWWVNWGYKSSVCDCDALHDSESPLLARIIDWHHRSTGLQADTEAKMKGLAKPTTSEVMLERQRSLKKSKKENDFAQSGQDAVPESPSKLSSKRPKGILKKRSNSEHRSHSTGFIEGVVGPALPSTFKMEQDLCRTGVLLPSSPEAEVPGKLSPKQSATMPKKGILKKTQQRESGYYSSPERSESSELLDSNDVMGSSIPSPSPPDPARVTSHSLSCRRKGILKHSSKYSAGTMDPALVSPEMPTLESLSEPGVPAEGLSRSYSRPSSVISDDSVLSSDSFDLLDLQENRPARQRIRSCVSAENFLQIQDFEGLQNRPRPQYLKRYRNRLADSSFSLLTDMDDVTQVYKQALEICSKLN
Description: Nuak1 inhibition in cellulo: LATS1 stabilization by western blot. The format is cell-based. Conditions: HeLa cells treated ON; whole cell extracts, WB, compared to control. On the procedure:
HeLa cells were treated ON by C21 (also named CH21) and C14M and compared to the control (C0). Whole cell extracts were analyzed by WB with anti LATS1 monoclonal antibody and the loading was quantified through the tubulin signal.
Therefore the possibility of inhibiting Nuakl, in cellulo, was evaluated through the stabilization of the Large Antigen Tumour Suppressor LATS1.
Cells were treated by compounds, harvested and lyzed in 9M urea then supplemented with Laemmli sample buffer. Cell extracts were subjected to SDS-PAGE and transferred to nitrocellulose filter (GE Healthcare). After blocking with 5% non-fat milk in PBS for at least 1 hour, the membranes were incubated with the primary antibodies. The following antibodies were used: phospho-Histone H3 Ser10 (1:2000, Upstate Biotechnology), anti LAST1 (Cell signalling), anti Aurora B (epitomics) and anti alpha-tubulin (Sigma) Anti-rabbit horseradish peroxidase (1:5000, GE Healthcare) was used as secondary antibodies. Bands were visualized by ECL technique (Amersham Bioscience).
For orientation: A western blot detects proteins with antibodies after separation by electrophoresis.

Another data set in a line: Water solubility. The format is physicochemical.
For a further data set, the target named is IRAK4 (Homo sapiens, UniProt Q9NWZ3). As to the kind of experiment: Kinase profiling in vitro at 1 μM. The format is biochemical. As to conditions: 1 microMolar in vitro, read-out: Percent of remaining activity. As to the method: (§1) The specificity of C14 was tested, in vitro, against 121 kinases representative of the kinome. Assays run in duplicate, at the concentration of 1 μM, were performed by MRC (Dundee, UK). Results are represented in FIG. 1. The main targets are highlighted in FIG. 1B. The profiling was performed at the MRC (Dundee University), in duplicate, on a set of 121 kinases. The panel is representative of the major different classes of kinases. Compounds were used at the concentration of 1 μM. In vitro, IC50 were determined on recombinant kinases by Reaction biology Corp (USA).

In the next data set the target is IR (Homo sapiens, UniProt P06213). Description: Kinase profiling in vitro at 1 μM. The class given is biochemical. Conditions: 1 microMolar in vitro, read-out: Percent of remaining activity. As to the method:
as §1

The next data set has as its target Jak2 (Homo sapiens, UniProt O60674). Description: Kinase profiling in vitro at 1 μM. The format is biochemical. As to conditions: 1 microMolar in vitro, read-out: Percent of remaining activity. On the procedure:
as §1

The next data set addresses TrkA (Homo sapiens, UniProt P04629). Description: Kinase profiling in vitro at 1 μM. The class given is biochemical. Conditions: 1 microMolar in vitro, read-out: Percent of remaining activity. On the procedure:
as §1

Another data set deals with Brsk1 (Homo sapiens, UniProt Q8TDC3). As to the kind of experiment: Kinase profiling in vitro at 1 μM. The format is biochemical. Conditions: 1 microMolar in vitro, read-out: Percent of remaining activity. As to the method:
as §1

For the next data set, the target named is MLK1 (Homo sapiens, UniProt P80192). Description: Kinase profiling in vitro at 1 μM. As to conditions: 1 microMolar in vitro, read-out: Percent of remaining activity. The class given is biochemical. As to the method:
as §1

A further data set has as its system VEGFR. As to the kind of experiment: Kinase profiling in vitro at 1 μM. The class given is biochemical. As to conditions: 1 microMolar in vitro. On the procedure: as §1
The target in a further data set is CAMKKb (Homo sapiens, UniProt Q96RR4). As to the kind of experiment: Kinase profiling in vitro at 1 μM. The format is biochemical. As to conditions: 1 microMolar in vitro, read-out: Percent of remaining activity. On the procedure: as §1
A further data set addresses STK33 (Homo sapiens, UniProt Q9BYT3). As to the kind of experiment: Kinase profiling in vitro at 1 μM. The format is biochemical. As to conditions: 1 microMolar in vitro, read-out: Percent of remaining activity. On the procedure: as §1
The target of the next data set is Tak1 (Homo sapiens, UniProt O43318). As to the kind of experiment: Kinase profiling in vitro at 1 μM. As to conditions: 1 microMolar in vitro, read-out: Percent of remaining activity. The format is biochemical. As to the method:
as §1

Another data set concerns Phk. As to the kind of experiment: Kinase profiling in vitro at 1 μM. The format is biochemical. As to conditions: 1 microMolar in vitro. As to the method:
as §1

The next data set concerns the target FGFR1 (Homo sapiens, UniProt P11362). As to the kind of experiment: Kinase profiling in vitro at 1 μM. The format is biochemical. As to conditions: 1 microMolar in vitro, read-out: Percent of remaining activity. On the procedure: as §1
The next data set deals with Gck (Homo sapiens, UniProt Q12851). Description: Kinase profiling in vitro at 1 μM. The format is biochemical. Conditions: 1 microMolar in vitro, read-out: Percent of remaining activity. On the procedure:
as §1

The target in data set [2] is T1, NUAK1. As to the kind of experiment: Kinase profiling in vitro at 1 μM. The format is biochemical. As to conditions: 1 microMolar in vitro, read-out: Percent of remaining activity. On the procedure: as §1
In another data set the target is MELK (Homo sapiens, UniProt Q14680). Description: Kinase profiling in vitro at 1 μM. The class given is biochemical. As to conditions: 1 microMolar in vitro, read-out: Percent of remaining activity. As to the method: as §1
MELK, sequence (Q14680 whole entry, species assumed): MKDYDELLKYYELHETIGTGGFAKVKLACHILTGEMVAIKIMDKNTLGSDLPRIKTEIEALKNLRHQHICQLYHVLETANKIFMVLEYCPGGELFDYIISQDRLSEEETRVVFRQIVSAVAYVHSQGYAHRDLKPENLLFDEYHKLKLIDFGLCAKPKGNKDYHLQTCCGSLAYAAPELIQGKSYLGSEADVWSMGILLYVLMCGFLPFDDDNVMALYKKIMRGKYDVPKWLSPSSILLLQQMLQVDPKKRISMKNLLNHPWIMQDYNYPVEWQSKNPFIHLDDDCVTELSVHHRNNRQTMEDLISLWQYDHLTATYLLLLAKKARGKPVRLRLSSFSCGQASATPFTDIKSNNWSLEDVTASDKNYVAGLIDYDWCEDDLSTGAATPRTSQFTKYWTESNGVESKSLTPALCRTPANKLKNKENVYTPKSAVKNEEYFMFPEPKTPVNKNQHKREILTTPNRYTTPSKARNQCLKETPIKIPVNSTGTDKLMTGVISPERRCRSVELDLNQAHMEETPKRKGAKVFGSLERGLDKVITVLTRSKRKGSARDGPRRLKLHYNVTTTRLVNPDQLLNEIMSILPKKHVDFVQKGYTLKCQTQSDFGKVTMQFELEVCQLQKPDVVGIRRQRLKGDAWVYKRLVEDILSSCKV

MLK1, sequence (P80192 whole entry, species assumed): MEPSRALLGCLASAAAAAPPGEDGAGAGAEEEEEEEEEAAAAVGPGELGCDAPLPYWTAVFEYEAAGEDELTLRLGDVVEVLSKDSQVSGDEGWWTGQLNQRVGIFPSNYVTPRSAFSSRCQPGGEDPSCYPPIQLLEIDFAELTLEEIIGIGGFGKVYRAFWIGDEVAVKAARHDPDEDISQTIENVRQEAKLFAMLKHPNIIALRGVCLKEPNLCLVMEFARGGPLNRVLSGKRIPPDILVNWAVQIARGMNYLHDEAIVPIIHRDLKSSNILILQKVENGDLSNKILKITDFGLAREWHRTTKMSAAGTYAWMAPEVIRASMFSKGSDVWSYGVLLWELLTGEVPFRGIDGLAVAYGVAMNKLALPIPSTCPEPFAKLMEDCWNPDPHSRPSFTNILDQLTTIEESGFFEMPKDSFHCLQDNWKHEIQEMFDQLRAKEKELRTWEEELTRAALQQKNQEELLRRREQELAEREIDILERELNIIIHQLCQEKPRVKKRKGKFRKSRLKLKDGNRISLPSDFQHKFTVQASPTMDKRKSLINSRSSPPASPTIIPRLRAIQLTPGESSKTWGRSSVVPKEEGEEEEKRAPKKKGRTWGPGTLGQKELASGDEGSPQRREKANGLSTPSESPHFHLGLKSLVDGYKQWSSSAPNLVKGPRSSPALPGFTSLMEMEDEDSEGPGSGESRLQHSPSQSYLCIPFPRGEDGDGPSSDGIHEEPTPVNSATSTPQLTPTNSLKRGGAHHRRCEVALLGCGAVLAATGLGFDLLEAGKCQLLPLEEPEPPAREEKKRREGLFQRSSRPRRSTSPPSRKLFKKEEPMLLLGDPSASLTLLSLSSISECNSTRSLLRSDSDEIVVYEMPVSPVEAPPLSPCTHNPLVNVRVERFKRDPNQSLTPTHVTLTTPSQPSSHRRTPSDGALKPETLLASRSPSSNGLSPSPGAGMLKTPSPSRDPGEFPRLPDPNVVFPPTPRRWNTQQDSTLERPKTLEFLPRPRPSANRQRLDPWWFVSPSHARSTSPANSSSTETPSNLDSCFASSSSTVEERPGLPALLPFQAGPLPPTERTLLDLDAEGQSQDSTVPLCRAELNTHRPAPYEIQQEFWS
FGFR1, sequence (P11362 22-822, species assumed): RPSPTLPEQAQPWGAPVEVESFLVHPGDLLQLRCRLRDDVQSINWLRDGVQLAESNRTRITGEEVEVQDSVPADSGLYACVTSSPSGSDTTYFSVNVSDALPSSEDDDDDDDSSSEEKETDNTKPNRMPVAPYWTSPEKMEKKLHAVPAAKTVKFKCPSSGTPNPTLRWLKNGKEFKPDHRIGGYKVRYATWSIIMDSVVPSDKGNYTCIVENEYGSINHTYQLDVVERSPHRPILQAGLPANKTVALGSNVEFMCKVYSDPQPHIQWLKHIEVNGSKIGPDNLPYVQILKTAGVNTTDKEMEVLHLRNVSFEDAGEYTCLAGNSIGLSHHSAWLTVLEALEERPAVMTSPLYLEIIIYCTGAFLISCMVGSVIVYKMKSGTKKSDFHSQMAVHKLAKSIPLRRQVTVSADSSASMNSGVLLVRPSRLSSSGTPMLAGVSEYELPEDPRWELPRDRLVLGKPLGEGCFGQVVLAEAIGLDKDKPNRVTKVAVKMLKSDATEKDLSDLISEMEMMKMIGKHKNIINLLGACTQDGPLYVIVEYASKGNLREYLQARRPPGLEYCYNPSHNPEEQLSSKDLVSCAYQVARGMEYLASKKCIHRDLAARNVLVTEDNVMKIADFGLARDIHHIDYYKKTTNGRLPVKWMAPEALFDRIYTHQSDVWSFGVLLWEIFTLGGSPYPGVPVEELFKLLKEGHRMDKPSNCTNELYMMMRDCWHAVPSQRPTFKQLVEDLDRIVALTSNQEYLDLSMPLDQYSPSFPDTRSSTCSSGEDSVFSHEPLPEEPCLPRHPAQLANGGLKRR
TrkA, sequence (P04629 33-796, species assumed): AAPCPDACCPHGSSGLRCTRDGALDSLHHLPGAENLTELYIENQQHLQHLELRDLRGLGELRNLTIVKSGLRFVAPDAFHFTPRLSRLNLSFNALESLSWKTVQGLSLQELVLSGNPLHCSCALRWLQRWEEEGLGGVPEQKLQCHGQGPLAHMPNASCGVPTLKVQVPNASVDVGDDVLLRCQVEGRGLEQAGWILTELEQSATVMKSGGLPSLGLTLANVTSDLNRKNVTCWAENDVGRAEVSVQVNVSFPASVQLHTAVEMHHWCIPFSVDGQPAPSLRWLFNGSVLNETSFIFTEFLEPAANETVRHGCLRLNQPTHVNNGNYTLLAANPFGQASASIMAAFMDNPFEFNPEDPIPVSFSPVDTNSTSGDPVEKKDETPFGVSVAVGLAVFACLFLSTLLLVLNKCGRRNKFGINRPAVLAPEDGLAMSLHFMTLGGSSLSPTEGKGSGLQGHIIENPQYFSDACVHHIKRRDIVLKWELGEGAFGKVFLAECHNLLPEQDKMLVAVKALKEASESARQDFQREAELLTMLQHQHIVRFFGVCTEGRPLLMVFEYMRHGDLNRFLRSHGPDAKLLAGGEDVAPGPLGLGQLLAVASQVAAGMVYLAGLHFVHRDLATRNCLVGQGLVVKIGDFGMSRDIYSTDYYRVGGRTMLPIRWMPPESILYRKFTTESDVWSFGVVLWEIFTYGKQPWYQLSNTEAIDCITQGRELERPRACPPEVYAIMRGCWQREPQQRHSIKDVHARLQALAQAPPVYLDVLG
IR, sequence (P06213 28-1382): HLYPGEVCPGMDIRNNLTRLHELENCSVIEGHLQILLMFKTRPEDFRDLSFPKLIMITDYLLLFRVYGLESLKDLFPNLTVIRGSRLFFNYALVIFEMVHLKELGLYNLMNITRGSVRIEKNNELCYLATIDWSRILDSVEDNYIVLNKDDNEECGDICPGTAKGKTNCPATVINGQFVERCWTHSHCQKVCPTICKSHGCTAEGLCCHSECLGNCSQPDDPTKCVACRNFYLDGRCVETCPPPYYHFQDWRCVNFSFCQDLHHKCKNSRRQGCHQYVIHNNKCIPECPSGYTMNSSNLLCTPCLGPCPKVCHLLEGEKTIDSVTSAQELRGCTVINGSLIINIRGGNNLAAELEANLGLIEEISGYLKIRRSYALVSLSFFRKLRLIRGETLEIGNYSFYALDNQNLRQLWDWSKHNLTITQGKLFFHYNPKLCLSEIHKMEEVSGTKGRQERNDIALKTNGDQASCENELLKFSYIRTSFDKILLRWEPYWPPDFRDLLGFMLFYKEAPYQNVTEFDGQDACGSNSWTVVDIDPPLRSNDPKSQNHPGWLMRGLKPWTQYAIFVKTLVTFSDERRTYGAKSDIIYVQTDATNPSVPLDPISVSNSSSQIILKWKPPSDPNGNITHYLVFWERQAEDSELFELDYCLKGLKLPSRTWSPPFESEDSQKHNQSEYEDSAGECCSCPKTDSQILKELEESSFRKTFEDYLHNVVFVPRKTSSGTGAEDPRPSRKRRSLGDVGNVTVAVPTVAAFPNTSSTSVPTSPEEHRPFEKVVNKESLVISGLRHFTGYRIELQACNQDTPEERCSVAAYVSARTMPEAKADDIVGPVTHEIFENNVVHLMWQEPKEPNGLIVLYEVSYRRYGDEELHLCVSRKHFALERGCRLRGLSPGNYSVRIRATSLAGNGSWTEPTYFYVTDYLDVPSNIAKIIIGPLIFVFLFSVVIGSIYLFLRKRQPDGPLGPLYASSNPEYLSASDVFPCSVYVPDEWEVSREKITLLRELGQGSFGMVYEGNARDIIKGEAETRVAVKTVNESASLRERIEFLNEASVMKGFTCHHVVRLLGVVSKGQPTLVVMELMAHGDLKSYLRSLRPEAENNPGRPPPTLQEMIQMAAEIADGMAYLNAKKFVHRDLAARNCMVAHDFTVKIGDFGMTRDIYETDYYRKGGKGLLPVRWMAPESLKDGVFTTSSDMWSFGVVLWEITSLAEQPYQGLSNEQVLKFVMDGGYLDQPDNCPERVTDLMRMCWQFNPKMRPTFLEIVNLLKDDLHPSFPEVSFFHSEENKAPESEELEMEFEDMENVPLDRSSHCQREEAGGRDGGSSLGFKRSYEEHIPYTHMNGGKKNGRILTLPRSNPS
Tak1, sequence (O43318 1-303 limits assumed): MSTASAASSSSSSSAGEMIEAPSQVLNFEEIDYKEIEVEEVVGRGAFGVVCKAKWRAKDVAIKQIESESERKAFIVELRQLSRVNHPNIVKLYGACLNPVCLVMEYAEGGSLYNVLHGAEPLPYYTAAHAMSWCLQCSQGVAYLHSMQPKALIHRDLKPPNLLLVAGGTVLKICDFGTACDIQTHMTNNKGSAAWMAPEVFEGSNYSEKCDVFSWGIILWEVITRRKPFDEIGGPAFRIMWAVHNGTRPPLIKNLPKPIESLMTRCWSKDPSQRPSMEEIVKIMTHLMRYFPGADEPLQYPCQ
Tak1, sequence (Q15750 437-504 partner limits assumed): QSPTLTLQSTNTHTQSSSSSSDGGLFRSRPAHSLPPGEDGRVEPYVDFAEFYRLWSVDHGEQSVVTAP

For `Cc1cncc2c1[nH]c1ccc3cc(OCCN(C)C)ccc3c12` [CH21, 3-(2-N,N-dimethylaminoethyloxy)-8-methyl-7H-benzo[e]pyrido(4,3-b)indole], on NUAK1 [1], the “LATS1 protein level (in words)” value is reported as “large increase”.

Regarding `Cc1c[nH]c(=O)c2c1[nH]c1ccc3cc(OCCN(C)C)ccc3c12` [Compound C14, 3-(2-N,N-Dimethylaminoethoxy)-8-methyl-7H,10H-benzo[e]pyrido(4,3-b)indol-11-one], in the data set “Water solubility”, the “solubility in water (in words)” value is reported as “water soluble”. In addition, the remaining activity at 1 µM at IRAK4 was determined as 25%; on IR it was 15%; at Jak2, 21%; at TrkA it was 5%; on Brsk1, 22%; at MLK1, 27%. In addition, the remaining activity at 1 µM at CAMKKb was 22%; on STK33, 31%; at Tak1 it was 6%; at FGFR1, 24%; on Gck, 11%; at NUAK1 [2], 4%. Also, at MELK, the remaining activity at 1 µM was 31%. Further, the “Percent of remaining activity” value with VEGFR was 16%; with Phk it was 10%.
